Data reported in patent publication US5089479A, “Adhesion of Mycoplasma pneumoniae and Mycoplasma hominus to sulfatide” (priority 1988, dated 1992).
Entries after “also recorded” stand apart in the source; their conditions may differ. Counter-ions that a name gives are not always drawn.

Tests used:
[1] = tested on: M. pneumoniae; experiment: Mycoplasma overlay assay: binding of [3H]-M. pneumoniae to glycolipids on thin layer chromatograms; design: species or system Mycoplasma pneumoniae strain M129; details: for binding of M. pneumoniae to glycolipid (in words): thin layer chromatogram overlay; for Binding (ability to bind M. pneumoniae): Table I, class by amount of lipid bound
Protocol: (§1) Virulent M. pneumoniae strain M129, passage 5-15, were grown and metabolically labelled with [^3 H]palmitic acid, 12-17 Ci/mole, as described by Chandler et al. in Infect. Immun. 37: 942, 1982. The organisms were passed four times through a 26 gauge needle and suspended to approximately 10^7 cpm/ml of degassed RPMI 1640 medium containing 1% bovine serum albumin and 25 mM HEPES, pH 7.3.
M. pneumoniae were bound to glycolipids separated on thin-layer chromatograms as described in detail for other bacteria by Krivan et al., Proc. Natl. Acad. Sci. 85: 6157-6161, 1988, and Krivan et al., Arch. Biochem. Biophys. 260:493-496, 1988. Briefly, glycolipids were separated by thin-layer chromatography on aluminum-backed silica gel high-performance plates developed with chlooform:methanol:0.25% CaCl2 in water (60:35:8). After chromatography, the plates were coated with 0.1% polyisobutylmethacrylate, soaked in 0.05 M Tris-HCl, pH 7.6, containing […] sodium chloride, 5 mM CaCl2, 0.2 mM phenylmethane-sulfonyl fluoride, and 1% bovine serum albumin (TBS-BSA) and incubated for three hours at 25° C. with 60 μl/cm^2 of [^3 H]-labelled M. pneumoniae, approximately 10^7 cpm/ml of RPMI-BSA. The plates were gently washed five times in 0.01 M sodium phosphate, pH 7.2, containing 0.15 M sodium chloride (PBS) to remove unbound organisms, dried, and exposed for 24 hours to Ultrofilm ^3 H (2208-190) high speed film.
To obtain the results shown in FIG. 1, glycolipids were chromatographed on aluminum-backed silica gel HPTLC plates developed in chloroform/methanol/0.25% CaCl2 in water, 60:35:8. The plates were coated with plastic, soaked in Tris-BSA, and incubated for three hours at 25° C. with [^3 H]-palmitate-labelled M. pneumoniae suspended in RPMI 1640 containing 1% BSA and 25 mM HEPES, pH 7.3, as described above (Panel A), or sprayed with orcinol reagent to identify glycolipids (Panel B). Lane a, acidic glycolipid standards sulfatide (0.5 μg), GM3 (2 μg), GM2 (2 μg), GD1a (2 μg), GD1b (2 μg), GT1b (2 μg); lane b, neutral standards galactosyl ceramide (4 μg), lactosylceramide (4 μg), globotriaosylceramide (2 μg), c2(0.5 μg). and c3 (o.1 μg); lane d, seminolipid (2 μg); lane e, cholesterol 3 -sulfate (2 μg); lane f, human trachea acidic glycolipids from 100 mg wet weight […]; lane h, α2-3sialylparagloboside (2 μg); lane 1, I-active monosialylganglioside from bovine erythrocytes (2 μg).

[2] = tested on: M. pneumoniae; experiment: Solid-phase binding of [3H]-M. pneumoniae to purified glycolipids immobilized in microtiter plates; design: species or system Mycoplasma pneumoniae strain M129; details: microtiter plate; up to 10 μg per well
Protocol: as §1
(§2) The binding of M. pneumoniae to purified glycolipids immobilized in microtiter plates was measured as described by Krivan et al. in Proc. Natl. Acad. Sci., op. cit. Purified glycolipids were serially diluted in 25 μl of methanol containing 0.1 μg each of the auxiliary lipids cholesterol and phosphatidylcholine. After the solutions were dried by evaporation, the wells were filled with TBS-BSA, emptied after one hour, rinsed with RPMI-BSA, and incubated with 25 μl of [^3 H]-M. pneumoniae, approximately 10^7 cpm/ml RPMI-BSA. After incubation for two hours at 37° C., unless otherwise stated, the wells were washed five times with saline and bound M. pneumoniae was quantified by scintillation counting in Aquasol. For inhibition studies, various polysaccharides were serially diluted in […] of [^3 H]-M. pneumoniae.
To obtain the results shown in FIG. 2, lipids in […] each of the auxiliary lipids cholesterol and phosphatidylcholine were evaporated in flat bottom wells of polyvinylchloride microtiter plates. The wells were blocked with 1% albumin for one hour, washed twice with RPMI-BSA, and incubated at 25° C. with 25 μl of [^3 H]-M. pneumoniae, approximately […]. After two hours, the wells were washed five times with saline, cut from the plate, and bound radioactivity was quantified in a scintillation counter. In control experiments, organisms were incubated with auxiliary lipids only to correct for nonspecific binding, typically <1% of the total radioactivity added. M. pneumoniae binding was determined in RPMI-BSA for sulfatide ( .circle. ), lactosylceramide, paragloboside, and cholesterol sulfate, ceramide trihexoside, globoside, GM1, GM2, or GM3 ( .largecircle.).
Binding of [^3 H]-M. pneumoniae was determined in RPMI-BSA for two hours at 4° C., 25° C. ( .circle. ), 37° C., and at 37° C. in BSA without RPMI (Δ).

[3] = tested on: M. pneumoniae; experiment: M. pneumoniae adhesion to immobilized glycoproteins adsorbed on plastic; type: binding, Mycoplasma pneumoniae strain M129; details: for M. pneumoniae adhesion to immobilized glycoprotein (in words): adsorbed on plastic; for amount of glycoprotein coated that promotes adhesion: coated wells; for Relative binding activity: relative to fetuin = 1.0, from amount for half maximal binding, mean of 2 or 3 experiments
Protocol: Glycoproteins dissolved in 0.01 M sodium phosphate buffer, pH 7.4, containing 150 mM NaCl, 1 mM CaCl2, and 0.01% NaN3 were adsorbed onto plastic polyvinylchloride […] microtiter plates by incubation for 16 hours at 4° C. The unbound proteins were removed, and the wells were filled with tris-BSA and incubated for 30 minutes at room temperature. The wells were rinsed with RPMI1640 containing 25 mM HEPES, pH 7.3, and 1% bovine serum albumin. M. pneumoniae strain M129 labelled with [^3 H]-palmitate were dispersed in RPMI-BSA by passing four times through a 26 gauge needle, and 50 μl of the suspension was applied to the wells. After incubation for 60 minutes at 37° C., the wells were washed five times with saline and the labelled M. pneumoniae bound to the proteins were quantified by scintillation counting in Aquasol. […]

[4] = tested on: M. pneumoniae binding to sulfatide; experiment: Inhibition of M. pneumoniae binding to sulfatide adsorbed on plastic; design: species or system Mycoplasma pneumoniae strain M129; details: for inhibition of binding to sulfatide at 100 μg/ml (in words): sulfatide in microtiter plates
Protocol: as §1, §2
To obtain the results shown in FIG. 4, polysaccharides were serially diluted in 25 μl of RPMI-BSA in microtiter wells previously coated with 1 μg of purified sulfatide. Binding was determined after incubation of two hours at 37° C. with 25 μl of [^3 H]-M. pneumoniae with the indicated concentration of dextran ( .circle. ) or dextran sulfate.

Compound	binding of M. pneumoniae to glycolipid (in words) [1]	Binding (ability to bind M. pneumoniae) [1]	also measured
CC(C)CCC[C@@H](C)[C@H]1CC[C@H]2[C@@H]3CC=C4C[C@@H](OS(=O)(=O)O)CC[C@]4(C)[C@H]3CC[C@]12C [cholesterol sulfate, cholesterol 3 -sulfate]	does not bind		binding of M. pneumoniae to immobilized lipid (in words) [2]: no binding was detected
Alpha2-3-sialylparagloboside (NeuGc)		- (no binding to 4 μg of lipid)	
Asialo GM1		- (no binding to 4 μg of lipid)	
Bovine Fetuin: major protein in fetal calf serum			M. pneumoniae adhesion to immobilized glycoprotein (in words) [3]: promote dose-dependent and saturable adhesion; amount of glycoprotein coated that promotes adhesion [3]: less than 10 ng; Relative binding activity [3]: 1.0
Bovine serum Albumin: protein			Relative binding activity [3]: < 0.01
GD1^b	No binding was detected	- (no binding to 4 μg of lipid)	
GD1a	No binding was detected	- (no binding to 4 μg of lipid)	
GT1b	No binding was detected	- (no binding to 4 μg of lipid)	
Galactosyl ceramide-I6-sulfate [Sulfatide Gal(6SO4)β11Cer]		+++ (positive binding to less than 0.5 μg)	binding of M. pneumoniae to glycolipid (in words) ([1]; listed as 6-sulfate isomer): does not discriminate between galactosyl ceramide I^3 -sulfate and its unnatural 6-sulfate isomer; binding of M. pneumoniae to glycolipid (in words) ([1]; listed as isomer of sulfatide in which the terminal sulfate is linked to the 6-position of): bound
Human Transferrin: protein			M. pneumoniae adhesion to immobilized glycoprotein (in words) [3]: no binding of M. pneumoniae was detected; Relative binding activity [3]: < 0.01
Human platelet thrombospondin: adhesive glycoprotein			M. pneumoniae adhesion to immobilized glycoprotein (in words) [3]: strongly promote adhesion; amount of glycoprotein coated that promotes adhesion [3]: less than 10 ng; Relative binding activity [3]: 0.7
IV^3 -[3'SO3 GlcA]- nLcOse4Cer [SO4 -Glucuronosylparagloboside]	does not bind	- (no binding to 4 μg of lipid)	
IV^3 GalnLcOse4Cer [α-Galactosylparagloboside]		+ (2-4 μg)	binding of M. pneumoniae to glycolipid (in words) ([1]; listed as o-galactosylparagloboside): weakly
Lacto-N-triaosylceramide [Lacto- --N-triaosylcer]	weakly		
Lactoisooctaosylceramide [I-active Lacto- isooctaosylcer]		- (no binding to 4 μg of lipid)	
Lactosylceramide [Lactosylcer (CDH)]	weakly	++ (0.5 to 2 μg)	binding of M. pneumoniae to glycolipid (in words) ([1]; listed as lactosylderamide): binds to high amounts; binding of M. pneumoniae to immobilized lipid (in words) [2]: bound weakly
Lactosylceramide-II^3 -sulfate [Lactosylsulfatide]		+++ (positive binding to less than 0.5 μg)	binding of M. pneumoniae to glycolipid (in words) ([1]; listed as lactosyl sulfatide): bound; binding of M. pneumoniae to glycolipid (in words) ([1]; listed as lactosylsulfatide): bound strongly
Paragloboside	weakly	+ (2-4 μg)	binding of M. pneumoniae to immobilized lipid (in words) [2]: bound weakly
chondroitin sulfate			inhibition of binding to sulfatide at 100 μg/ml (in words) [4]: did not inhibit binding
colominic acid			inhibition of binding to sulfatide at 100 μg/ml (in words) [4]: did not inhibit binding
dextran			inhibition of binding to sulfatide (in words) ([4]; sulfatide adsorbed on plastic): no effect
fucoidin			inhibition of binding to sulfatide at 100 μg/ml (in words) [4]: did not inhibit binding
glucosylceramide [Glucosylcer (CMH)]	weakly	+ (2-4 μg)	
heparin			inhibition of binding to sulfatide at 100 μg/ml (in words) [4]: did not inhibit binding
hyaluronate			inhibition of binding to sulfatide at 100 μg/ml (in words) [4]: did not inhibit binding
sialyllactofucopentaosyl-(III)-ceramide [Sialylneolactofucopenta-osylcer]		- (no binding to 4 μg of lipid)	
α2-3-sialyl-paragloboside (NeuAc) [Sialylparagloboside]	No binding was detected	- (no binding to 4 μg of lipid)	
α2-3-sialyllactoneohexaosylceramide [Sialylneolacto-hexaoslycer]		- (no binding to 4 μg of lipid)	
α-Ga121actoisooctaosylceramide [I-active Gal2 - lactoisooctaosylcer]		- (no binding to 4 μg of lipid)	
β-galactosylalkylacylglycerol-I^3 -sulfate [Seminolipid]	bound strongly; also recorded: bound	+++ (positive binding to less than 0.5 μg)	
